Values of other authors as cited in US20020068684A1, “Stripping and cleaning compositions” (priority 1999, published 2002).

Details: from CRC tables

- PKa: 9.85
SMILES: Oc1ccccc1O [Catechol]
